Results taken from patent US11724980B2, “Quinones having high capacity retention for use as electrolytes in aqueous redox flow batteries” (President and Fellows of Harvard College, priority 2018, dated 2023).

How the values were obtained:
[1] = Full cell cycling against potassium ferro/ferricyanide posolyte; settings: from NMR and CV detection limits, full cell cycled 11 days
Procedure: Full cell cycling (i.e. with a ferro/ferricyanide-based posolyte) was performed with the same flow cell hardware but with a FUMASEP® E-620(K) membrane due to its high conductivity and low permeability of DBEAQ and ferricyanide compared to other membranes. For studies at pH 14, the posolyte volume was 30 mL, and its composition, when assembled, was 0.20 M potassium ferrocyanide, 0.08 M potassium ferricyanide, and 1 M KOH. The negolyte was prepared by dissolving 0.1 M 2,6-DBEAQ in its oxidized form in 1.2 M KOH solution, resulting in 0.1 M 2,6-DBEAQ, 1.2 M K+, and 1 M OH^− electrolyte solution. For studies at pH 12, both electrolytes comprised 10 mM OH^−; the pH was checked both with a pH meter and pH paper and adjusted where necessary. For all full cell studies, the negolyte was assembled in the fully discharged state. Galvanostatic cycling was performed at ±0.1 A/cm^2 at room temperature, with voltage limits of 0.6 and 1.4 V. To obtain the polarization curves, the cell was first charged to the desired state of charge and then polarized via linear sweep voltammetry at a rate of 100 mV/s. […] Electrochemical impedance spectroscopy (EIS) was performed at SOCs between 10 and 100% at open-circuit potential with a 10 mV perturbation and with frequency ranging from 1 to 300,000 Hz. […]

physchem = type: physicochemical; settings: for decomposition: 0.1 M
Procedure: FIGS. 24A-24D. Comparison of the stability of DPPEAQ with respect to alkyl chain cleavage to that of 2,6-DBEAQ at pH 14. ^1H NMR spectra (500 MHz, 10 mM NaCH3SO3 internal standard, δ 2.6 ppm) of (A) DPPEAQ at pH 14; (B) DPPEAQ at pH 14, treated for 5.5 days at 95° C. and 0.1 M concentration; (C) 2,6-DBEAQ at pH 14; (D) 2,6-DBEAQ at pH 14, treated for 5.5 days at 95° C. and 0.1 M concentration. […] The relative integrals and splitting of the peaks in the spectra of DPPEAQ after treatment are consistent with the products of (3-hydroxypropyl)phosphonate cleavage. Samples of DPPEAQ at 0.1 M concentration and pH 14 in both the oxidized and reduced form were stored in FEP bottles and heated in an oven at 65° C. for 2 weeks. The extent of decomposition was determined by ^1H NMR, with peak integrals measured relative to an internal standard of NaCH3SO3 prepared at 10 mM concentration in D2O.
By performing elevated temperature chemical stability studies, we have identified that the cleavage of γ-hydroxybutyrate is involved in the decomposition of the oxidized form of 2,6-DBEAQ (FIGS. 10A-10C and FIGS. 11A-11D), and we have characterized the time course of γ-hydroxybutyrate cleavage at pH 12 and pH 14 and at 0.1 M and 0.5 M concentration (FIG. 12 and FIGS. 13A-13C). […]; these observations are consistent with long redox flow battery lifetime at typical operating cell conditions.
We designed an analogue of 2,6-DBEAQ but with phosphonate-terminated functional groups, DPPEAQ, appearing to deliver both of these desired outcomes.
The differing relative stabilities of DPPEAQ and 2,6-DBEAQ at pH 12 (at 95° C. and 0.1 M concentration), in contrast to the similar extent of their observed decomposition at pH 14, may be due to a competition between multiple decomposition mechanisms that vary in a pH-dependent manner. The concentration of hydroxide ions at pH 14 is tenfold higher than the concentration of either molecule at 0.1 M, as opposed to tenfold lower at pH 12. In particular, we propose a hydroxide-mediated nucleophilic substitution reaction (SNAr or SN2) that dominates the decomposition of both molecules at pH 14. However, at a lower pH of 12, an intramolecular reaction with carboxylate acting as the nucleophile dominates in the decomposition of 2,6-DBEAQ, while no analogous intramolecular reaction of DPPEAQ at pH 12 can take place due to much weaker nucleophilicity of bulked phosphonate compared with carboxylate. The difference in the dominant mechanisms of 2,6-DBEAQ decomposition at pH 12 and 14 that we are proposing is also consistent with the observation that the initial rate of degradation is not 100-fold slower at pH 12 relative to pH 14. […] In addition, the operability at lower pH serves to decrease the corrosion of battery systems and enable the use of less expensive materials.

**Q.** Which “upper limit of capacity fade rate caused by decomposition and/or membrane crossover” value [1] does the source give for `O=C([O-])CCCOc1ccc2c(c1)C(=O)c1ccc(OCCCC(=O)[O-])cc1C2=O.[K+].[K+]` [2,6-DBEAQ, 4,4′-((9,10-anthraquinone-2,6-diyl)dioxy)dibutyric acid] here?
**A.** Its value is no more than 0.01 %/day.

**Q.** And the half-life (physchem; buffer, room temperature, pH 14, 0.1 M, oxidized form, from elevated temperature studies)?
**A.** Its half-life is roughly 1830 days.

**Q.** And the decomposition (physchem; pH 12, 6 days at 95° C.)?
**A.** The decomposition was 15%.

**Q.** And the decomposition (physchem; pH 14, 5.5 days at 95° C.)?
**A.** The decomposition was 45%.

**Q.** What about the “stability of the reduced form” value (physchem; temperatures up to 95° C.) of the same compound?
**A.** The value was “quite stable”.
